Results from ChEMBL document CHEMBL5380844, “Discovery of a Novel, Potent, Orally Active, and Safe Inhibitor Targeting Human Mitochondrial RNA Polymerase” (J Med Chem, 2023).
pIC50: −log10 of the molar value. Activity calls are given as the source filed them. The calls are words filed in the database; no cut-off is given here.

Tests used:
[1] = tested on: A2780; assay: Induction of cell cycle arrest in human A2780 cells assessed as accumulation of cells at G1 phase at 100 nM measured after 96 hrs by PI staining based flow cytometry analysis (reference value: 80.81%); assay type: functional
[2] = tested on: A2780; assay: Inhibition of MT-ND6 expression in human A2780 cells at 100 nM incubated for 12 hrs by RNA sequencing analysis; assay type: functional, cell-based
[3] = tested on: A2780; assay: Induction of apoptosis in human A2780 cells assessed as necrotic cells at 50 nM incubated for 96 hrs by Annexin-V/FITC and PI staining based flow cytometry analysis (reference value: 2.07%); assay type: functional
[4] = tested on: A2780; assay: Induction of apoptosis in human A2780 cells assessed as viable cells at 200 nM incubated for 96 hrs by Annexin-V/FITC and PI staining based flow cytometry analysis (reference value: 89.2%); assay type: functional; settings: read-out: Activity
[5] = tested on: A2780; assay: Antitumor activity against human A2780 cells xenografted in BALB/c nude mouse model assessed as effect on heart 100 mg/kg, po measured after 27 days; assay type: functional, organism-based; settings: time 27.0 day
[6] = tested on: A2780; assay: Induction of cell cycle arrest in human A2780 cells assessed as accumulation of cells at S phase at 200 nM measured after 96 hrs by PI staining based flow cytometry analysis (reference value: 14.7%); assay type: functional
[7] = tested on: A2780; assay: Inhibition of mitochondrial transcript in human A2780 cells incubated for 12 hrs followed by compound removal and measured after 36 hrs by RT-qPCR analysis; assay type: functional, cell-based
[8] = tested on: A2780; assay: Downregulation of UQCR level in human A2780 cells by Western blot analysis; assay type: functional, cell-based; settings: dose <= 500.0 nM
[9] = Toxicity in Balb/c mouse assessed as effect on lung at 100 mg/kg by H and E staining based analysis; assay type: organism-based; settings: in vivo
[10] = biological target: T1, Cytochrome P450 1A2 (Homo sapiens, UniProt P05177); assay: Inhibition of CYP1A2 (unknown origin) using phenacetin as substrate in presence of NADPH by LC/MS/MS analysis; assay type: ADME
T1 sequence (P05177 whole entry): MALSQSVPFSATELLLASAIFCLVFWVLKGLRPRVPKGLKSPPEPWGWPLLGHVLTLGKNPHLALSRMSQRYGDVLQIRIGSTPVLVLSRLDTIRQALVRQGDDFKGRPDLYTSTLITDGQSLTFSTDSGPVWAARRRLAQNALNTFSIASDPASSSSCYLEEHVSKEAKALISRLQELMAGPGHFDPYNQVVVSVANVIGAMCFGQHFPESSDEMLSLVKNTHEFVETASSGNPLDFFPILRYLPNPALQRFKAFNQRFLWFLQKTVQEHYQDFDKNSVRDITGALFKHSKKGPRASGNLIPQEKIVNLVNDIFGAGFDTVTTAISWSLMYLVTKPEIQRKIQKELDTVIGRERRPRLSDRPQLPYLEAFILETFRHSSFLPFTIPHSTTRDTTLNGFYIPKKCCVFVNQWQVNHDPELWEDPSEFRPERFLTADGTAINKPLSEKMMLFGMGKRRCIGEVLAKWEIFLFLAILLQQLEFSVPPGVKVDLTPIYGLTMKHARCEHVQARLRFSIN

[11] = tested on: A2780; assay: Inhibition of mitochondrial transcript in human A2780 cells incubated for 12 hrs followed by compound removal and measured after 24 hrs by RT-qPCR analysis; assay type: functional, cell-based
[12] = tested on: A2780; assay: Induction of mitochondrial membrane potential changes in human A2780 cells assessed as increase in Q3 phase at 0 to 5 uM measured after 96 hrs by flow cytometry analysis; assay type: functional, cell-based; settings: dose 0-5 µM
[13] = Acute toxicity in Balb/c mouse assessed as effect on kidney 100 mg/kg measured after 27 days by H and E staining based analysis; assay type: organism-based; settings: in vivo, 648 h, time 27 day
[14] = Half life in ICR mouse at 10 mg/kg, po measured upto 24 hrs by LC-MS/MS analysis; assay type: ADME, organism-based; settings: in vivo
[15] = tested on: A2780; assay: Induction of apoptosis in human A2780 cells assessed as necrotic cells at 200 nM incubated for 96 hrs by Annexin-V/FITC and PI staining based flow cytometry analysis (reference value: 2.07%); assay type: functional
[16] = tested on: A2780; assay: Effect on 5S mRNA level in human A2780 cells by RT-qPCR analysis; assay type: functional, cell-based
[17] = tested on: A2780; assay: Induction of intracellular ROS generation in human A2780 cells at 0 to 5 uM by DCFH-DA staining based microscopic analysis; assay type: functional, cell-based; settings: dose 0-5 µM
[18] = AUC (0 to infinity) in ICR mouse at 10 mg/kg, po measured upto 24 hrs by LC-MS/MS analysis; assay type: ADME, organism-based; design: time < 24 hrs, dose 10 mg/kg, route po; settings: in vivo
[19] = Acute toxicity in Balb/c mouse assessed as effect on liver 100 mg/kg measured after 27 days by H and E staining based analysis; assay type: organism-based; settings: in vivo, 648 h, time 27 day
[20] = biological target: Cytochrome P450 2C9 (Homo sapiens, UniProt P11712); assay: Inhibition of CYP2C9 (unknown origin) using diclofenac as substrate in presence of NADPH by LC/MS/MS analysis; assay type: ADME
Sequence of Cytochrome P450 2C9 (P11712 whole entry): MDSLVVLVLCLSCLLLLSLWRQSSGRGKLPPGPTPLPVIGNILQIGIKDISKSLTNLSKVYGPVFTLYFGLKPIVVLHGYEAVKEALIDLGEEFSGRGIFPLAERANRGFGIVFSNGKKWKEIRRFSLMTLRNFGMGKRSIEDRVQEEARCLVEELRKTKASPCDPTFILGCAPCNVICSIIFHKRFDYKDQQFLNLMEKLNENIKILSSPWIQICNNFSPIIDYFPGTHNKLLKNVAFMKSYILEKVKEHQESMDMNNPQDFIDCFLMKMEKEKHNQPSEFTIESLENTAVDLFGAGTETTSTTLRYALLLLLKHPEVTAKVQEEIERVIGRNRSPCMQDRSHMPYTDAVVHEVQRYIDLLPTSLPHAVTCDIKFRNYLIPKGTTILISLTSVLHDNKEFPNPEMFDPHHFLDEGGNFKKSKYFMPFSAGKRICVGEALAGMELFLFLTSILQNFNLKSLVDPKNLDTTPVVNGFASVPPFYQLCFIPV

[21] = tested on: A2780; assay: Inhibition of colony formation in human A2780 cells at upto 500 nM incubated for 14 days by crystal violet staining based analysis; assay type: functional, cell-based; settings: time 14.0 day
[22] = tested on: A2780; assay: Inhibition of MT-CO2 expression in human A2780 cells at 100 nM incubated for 12 hrs by RNA sequencing analysis; assay type: functional, cell-based
[23] = biological target: Cytochrome P450 3A4 (Homo sapiens, UniProt P08684); assay: Inhibition of […] (unknown origin) using midazolam as substrate in presence of NADPH by LC/MS/MS analysis; assay type: ADME
Sequence of Cytochrome P450 3A4 (P08684 whole entry): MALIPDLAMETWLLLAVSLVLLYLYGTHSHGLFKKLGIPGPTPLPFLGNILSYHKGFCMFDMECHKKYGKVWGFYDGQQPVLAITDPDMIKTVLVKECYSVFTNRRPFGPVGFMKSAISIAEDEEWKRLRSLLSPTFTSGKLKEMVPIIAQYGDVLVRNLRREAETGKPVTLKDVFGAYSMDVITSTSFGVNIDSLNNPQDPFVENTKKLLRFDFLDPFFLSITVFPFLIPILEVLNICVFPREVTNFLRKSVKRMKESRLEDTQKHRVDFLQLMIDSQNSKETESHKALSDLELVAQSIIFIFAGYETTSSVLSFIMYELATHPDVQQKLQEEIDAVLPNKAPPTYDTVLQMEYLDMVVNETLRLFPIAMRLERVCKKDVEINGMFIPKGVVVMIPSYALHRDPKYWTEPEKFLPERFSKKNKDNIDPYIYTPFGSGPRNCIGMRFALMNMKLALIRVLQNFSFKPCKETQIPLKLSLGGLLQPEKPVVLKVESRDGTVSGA

[24] = Toxicity in Balb/c mouse assessed as effect on liver at 100 mg/kg by H and E staining based analysis; assay type: organism-based; settings: in vivo
[25] = Volume of distribution at steady state in ICR mouse at 1 mg/kg, iv measured upto 24 hrs by LC-MS/MS analysis; assay type: ADME, organism-based; settings: in vivo, read-out: Vdss
[26] = tested on: A2780; assay: Induction of apoptosis in human A2780 cells assessed as viable cells at 50 nM incubated for 96 hrs by Annexin-V/FITC and PI staining based flow cytometry analysis (reference value: 89.2%); assay type: functional; settings: read-out: Activity
[27] = tested on: A2780; assay: Inhibition of MT-ND4 expression in human A2780 cells at 100 nM incubated for 12 hrs by RNA sequencing analysis; assay type: functional, cell-based
[28] = tested on: A2780; assay: Inhibition of MT-CO1 expression in human A2780 cells at 100 nM incubated for 12 hrs by RNA sequencing analysis; assay type: functional, cell-based
[29] = tested on: IMR-90; assay: Antiproliferative activity against human IMR-90 cells incubated for 168 hrs by SRB method; assay type: functional, cell-based; settings: IMR-90, 168 h
[30] = tested on: A2780; assay: Induction of apoptosis in human A2780 cells assessed as increase in cleaved PARP cleavage level at upto 500 nM by immunoblot analysis; assay type: functional, cell-based
[31] = tested on: A2780; assay: Induction of apoptosis in human A2780 cells assessed as early apoptotic cells at 100 nM incubated for 96 hrs by Annexin-V/FITC and PI staining based flow cytometry analysis (reference value: 14.14%); assay type: functional
[32] = tested on: A2780; assay: Antitumor activity against human A2780 cells xenografted in BALB/c nude mouse model assessed as reduction in […] level at 100 mg/kg, po by immunoblotting analysis; assay type: functional, organism-based
[33] = tested on: A2780; assay: Induction of apoptosis in human A2780 cells assessed as necrotic cells at 100 nM incubated for 96 hrs by Annexin-V/FITC and PI staining based flow cytometry analysis (reference value: 2.07%); assay type: functional

With `Cc1ccc(-c2cc(=O)oc3cc(O[C@H](C)C(=O)N4CC5CCC(C4)N5C)ccc23)c(C)c1` the Activity [1] was 87.12%, the inhibition [2] was “Active” and the Activity [3] was 2.29%. For the same molecule, the viability at 0.2 µM [4] was 90.7%, the Activity [5] was “inactive” and the Activity [6] was 9.07%. For the same molecule, the inhibition [7] was “inactive”, the Activity [8] was “Dose-Dependent Effect” and the Activity [9] was “Non-Toxic”. The pIC50 [10] was less than 4.40, the inhibition [11] was “inactive” and the Activity [12] was “inactive”. For the same molecule, the Activity [13] was “Non-Toxic”, the half-life [14] was 2.3 h and the Activity [15] was 4.01%. The Activity [16] was “inactive”, the Activity [17] was “inactive” and the AUC(0-inf) [18] was 1900 ng·h/mL. For the same molecule, the Activity [19] was “Non-Toxic”, the pIC50 [20] was 4.46 and the inhibition [21] was “Active”. The inhibition [22] was “Active”, the pIC50 [23] was less than 4.40 and the Activity [24] was “Non-Toxic”. For the same molecule, the Vd [25] was 6.4 L/kg, the viability at 0.05 µM [26] was 92.3% and the inhibition [27] was “Active”. The inhibition [28] was “Active”, the pIC50 [29] was less than 4.30 and the Activity [30] was “inactive”. The Activity [31] was 0.28%, the Activity [32] was “Active” and the Activity [33] was 4.46%.
